In patent US8101598B2 (priority 2006, dated 2012):
Structures can show the parent of a compound that is named as a salt.

Target: α7-subtype of nicotinic receptors (Rattus norvegicus, UniProt Q05941)
Assay: biochemical
Type: binding

Sequence of α7-subtype of nicotinic receptors (Q05941 23-502): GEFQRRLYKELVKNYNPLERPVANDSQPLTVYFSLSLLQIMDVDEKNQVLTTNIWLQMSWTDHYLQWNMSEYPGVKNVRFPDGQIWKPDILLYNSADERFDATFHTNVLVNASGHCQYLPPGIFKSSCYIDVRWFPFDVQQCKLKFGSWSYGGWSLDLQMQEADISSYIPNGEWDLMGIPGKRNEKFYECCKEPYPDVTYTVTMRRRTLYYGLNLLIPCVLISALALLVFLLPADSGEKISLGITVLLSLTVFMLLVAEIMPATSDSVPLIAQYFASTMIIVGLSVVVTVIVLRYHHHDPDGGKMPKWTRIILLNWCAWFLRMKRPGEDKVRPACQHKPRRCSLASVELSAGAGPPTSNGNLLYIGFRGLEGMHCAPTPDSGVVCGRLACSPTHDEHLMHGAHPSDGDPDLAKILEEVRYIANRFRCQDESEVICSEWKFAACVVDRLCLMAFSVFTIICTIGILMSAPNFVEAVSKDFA

c1cc2c(cc1-c1nnc(N3CCN4CCC3CC4)o1)OCO2 [Compound A1, 4-(5-Benzo[1,3]-dioxol-5-yl-[1,3,4]oxadiazol-2-yl)-1,4-diaza-bicyclo[3.2.2]nonane Fumaric Acid Salt]
IC50: < 10 nM
